Measured values published in ChEMBL document CHEMBL1137836, “Identification of a potent and rapidly reversible inhibitor of the 20S-proteasome” (Bioorg Med Chem Lett, 2004).

tested on: Proteasome; assay: Concentration required for reversal inhibition of 20S-proteasome; format: subcellular

Going from `Cc1cccc(S(=O)(=O)N[C@]2(C(C)C)CCN([C@@H](CC3CCCCC3)C(=O)N[C@@H](CC(C)C)B(O)O)C2=O)c1` to `CC[C@H](NC(=O)[C@H](CC1CCCCC1)N1CC[C@](NS(=O)(=O)c2cccc(C)c2)(C(C)C)C1=O)B(O)O`, the IC50 rises from 8 nM to 30 nM (3.8-fold). The first is the more potent here.

First: CC[C@H](NC(=O)[C@H](CC1CCCCC1)N1CC[C@](NC(=O)OCc2ccccc2)(C(C)C)C1=O)B(O)O
Second: CC[C@H](NC(=O)[C@H](C)N1CC[C@](NC(=O)OCc2ccccc2)(C(C)C)C1=O)B(O)O
The IC50 of the first is 33-fold lower: 30 nM for the first, 1000 nM for the second. The first is the more potent here.

`CC[C@H](NC(=O)[C@H](Cc1ccccc1)N1CC[C@](NC(=O)OCc2ccccc2)(C(C)C)C1=O)B(O)O` and `Cc1cccc(S(=O)(=O)N[C@]2(C(C)C)CCN([C@@H](CC3CCCCC3)C(=O)N[C@H](B(O)O)C(C)C)C2=O)c1` are within 1.5-fold of each other in IC50: 30 nM for the first, 28 nM for the second.
